# “And” between values parts separate entries of the source, which are not always exact repeats. Equal entries are not always repeated. Where two headings read alike, the source gives them in different places.
# What was measured:
# [1] = tested on: Absidia corymbifera CCM 8077 (Lichtheimia corymbifera); experiment: Antifungal microdilution broth method (EUCAST); type: cell-based; settings: read-out: MIC AC
# [2] = tested on: Escherichia coli ATCC 25922, CCM 3954; experiment: Antibacterial microdilution broth method (EUCAST); type: cell-based; settings: read-out: MIC EC
# [3] = tested on: Aspergillus fumigatus ATCC 204305; experiment: Antifungal microdilution broth method (EUCAST); type: cell-based; settings: read-out: MIC AF
# [4] = tested on: Candida tropicalis ATCC 750, CCM 8264; experiment: Antifungal microdilution broth method (EUCAST); type: cell-based; settings: read-out: MIC CT
# [5] = tested on: Mycobacterium smegmatis DSM 43465 (ATCC 607); experiment: Microdilution broth, modified Microplate Alamar Blue Assay, whole cell growth inhibition; type: cell-based; settings: Mycolicibacterium smegmatis, read-out: MIC Mycobacterium smegmatis
# [6] = tested on: Staphylococcus epidermidis ATCC 12228, CCM 4418; experiment: Antibacterial microdilution broth method (EUCAST); type: cell-based; settings: read-out: MIC SE
# [7] = tested on: Candida albicans ATCC 24433, CCM 8320; experiment: Antifungal microdilution broth method (EUCAST); type: cell-based; settings: read-out: MIC CA
# [8] = tested on: Staphylococcus aureus spp.aureus ATCC 29213, CCM 4223; experiment: Antibacterial microdilution broth method (EUCAST); type: cell-based; settings: read-out: MIC SA
# [9] = tested on: Trichophyton interdigitale ATCC 9533, CCM 8377; experiment: Antifungal microdilution broth method (EUCAST); type: cell-based; settings: read-out: MIC TI
# [10] = tested on: Aspergillus flavus CCM 8363; experiment: Antifungal microdilution broth method (EUCAST); type: cell-based; settings: read-out: MIC AFla
# [11] = tested on: Mycobacterium tuberculosis H37Ra ITM-M006710 (ATCC 9431); experiment: Microdilution broth, modified Microplate Alamar Blue Assay, whole cell growth inhibition; type: cell-based; settings: Mycobacterium tuberculosis, read-out: MIC Mtb H37Ra
# [12] = tested on: Mycobacterium aurum DSM 43999 (ATCC 23366); experiment: as above; type: cell-based; settings: Mycolicibacterium aurum, read-out: MIC Mycobacterium aurum
# HepG2 cells = experiment: HepG2 cytotoxicity, CellTiter 96 (MTS) assay; type: cell-based, human; settings: for IC50: Homo sapiens, HepG2, 24 h, read-out: HepG2 IC50; for SI, selectivity index: IC50 (HepG2)/MIC against Mtb H37Ra (in µM)
# [13] = tested on: Klebsiella pneumoniae ATCC 10031, CCM 4415; experiment: Antibacterial microdilution broth method (EUCAST)
# [14] = tested on: Pseudomonas aeruginosa ATCC 27853, CCM 3955; experiment: Antibacterial microdilution broth method (EUCAST); type: cell-based; settings: read-out: MIC PA
# [15] = tested on: Candida krusei ATCC 6258, CCM 8271; experiment: Antifungal microdilution broth method (EUCAST); type: cell-based; settings: Pichia kudriavzevii, read-out: MIC CK
# [16] = tested on: Enterococcus faecalis ATCC 29212, CCM 4224; experiment: Antibacterial microdilution broth method (EUCAST); type: cell-based; settings: read-out: MIC EF
# [17] = tested on: Candida parapsilosis ATCC 22019, CCM 8260; experiment: Antifungal microdilution broth method (EUCAST); type: cell-based; settings: Lodderomyces parapsilosis, read-out: MIC CP
# [18] = tested on: Acinetobacter baumanii ATCC 19606, DSM 30007; experiment: Antibacterial microdilution broth method (EUCAST); type: cell-based; settings: Acinetobacter baumannii
# [19] = tested on: Staphylococcus aureus methicillin resistant ATCC 43300, CCM 4750; experiment: microbe, parasite or virus in culture; type: cell-based; settings: ATCC 43300 / CCM 4750 / MRSA, read-out: MIC MRSA
# [20] = in vitro, Middlebrook 7H9 broth, resazurin
Compound,"MIC ([1]; CCM8077, 24 h) [µM]","MIC ([1]; CCM8077, 48 h) [µM]",MIC ([2]; 24 h) [µM],MIC ([2]; 48 h) [µM],"MIC ([3]; ATCC204305, 24 h) [µM]","MIC ([3]; ATCC204305, 48 h) [µM]",MIC ([4]; 24 h) [µM],MIC ([4]; 48 h) [µM],MIC [5] [µg/mL],MIC ([6]; 24 h) [µM],MIC ([6]; 48 h) [µM],MIC ([7]; 24 h) [µM],MIC ([7]; 48 h) [µM],MIC ([8]; 24 h) [µM],MIC ([8]; 48 h) [µM],MIC ([9]; 72 h) [µM],MIC ([9]; 120 h) [µM],melting point [°C],"MIC ([10]; CCM8363, 24 h) [µM]","MIC ([10]; CCM8363, 48 h) [µM]",other results
"CCCNc1cnc(C(=O)Nc2cccc(C(F)(F)F)c2)cn1 [Compound 1a, 5-(Propylamino)-N-(3-(trifluoromethyl)phenyl)pyrazine-2-carboxamide]",> 125,> 125,> 500,> 500,> 125,> 125,> 125,> 125,≥ 500,> 500,> 500,> 125,> 125,> 500,> 500,> 125,> 125,155 to 156,> 125,> 125,"MIC [11, 20]: 6.25 µg/mL; MIC [12]: ≥ 500 µg/mL; IC50 (HepG2 cells): > 25 µM; SI, selectivity index (HepG2 cells): >1.3; MIC KP ([13]; 24h): > 500 µM; MIC KP ([13]; 48h): > 500 µM; MIC ([14]; 72 h): > 500 µM; MIC ([14]; 120 h): > 500 µM; MIC ([15]; 24 h): > 125 µM; MIC ([15]; 48 h): > 125 µM; MIC ([16]; 24 h): > 500 µM; MIC ([16]; 48 h): > 500 µM; MIC ([17]; 24 h): > 125 µM; MIC ([17]; 48 h): > 125 µM; MIC ([18]; 24h): > 500 µM; MIC ([18]; 48h): > 500 µM; MIC ([19]; 24 h): > 500 µM; MIC ([19]; 48 h): > 500 µM"
"CCCCNc1cnc(C(=O)Nc2cccc(C(F)(F)F)c2)cn1 [Compound 1b, 5-(Butylamino)-N-(3-(trifluoromethyl)phenyl)pyrazine-2-carboxamide]",> 125,> 125,> 500,> 500,> 125,> 125,> 125,> 125,3.13,> 500,> 500,> 125,> 125,> 500,> 500,> 125,> 125,141 to 142,> 125,> 125,"MIC ([11]; MIC converted to µM): 9.24 µM; MIC [11, 20]: 3.13 µg/mL; MIC [12]: 6.25 µg/mL; IC50 (HepG2 cells): 126 µM; SI, selectivity index (HepG2 cells): 14 and 13.6; MIC KP ([13]; 24h): > 500 µM; MIC KP ([13]; 48h): > 500 µM; MIC ([14]; 72 h): > 500 µM; MIC ([14]; 120 h): > 500 µM; MIC ([15]; 24 h): > 125 µM; MIC ([15]; 48 h): > 125 µM; MIC ([16]; 24 h): > 500 µM; MIC ([16]; 48 h): > 500 µM; MIC ([17]; 24 h): > 125 µM; MIC ([17]; 48 h): > 125 µM; MIC ([18]; 24h): > 500 µM; MIC ([18]; 48h): > 500 µM; MIC ([19]; 24 h): > 500 µM; MIC ([19]; 48 h): > 500 µM"
